These are literature values, as cited in paper PMC12308805, “Ultrahigh-Throughput Virtual Screening Strategies against PPI Targets: A Case Study of STAT Inhibitors” (Journal of Chemical Information and Modeling, 2025).

Ends that are not written are not given here.

This series has as its system STAT3. Particulars: sheet 6QHD_actives_decoys, retrospective screening set for STAT3 SH2 domain (PDB 6QHD); decoys are presumed inactives, not tested; ref DUD-E; cited from earlier work.
Turning to `CCCCN/N=C(C(=O)OC)/C(C(=O)OC)=C(\O)C(=O)Nc1nc2ccc([N+](=O)[O-])cc2s1` [Decoy925], the Type entry is “Inactive (Decoy)”.

For the compound `CO[C@@H]1[C@H](O)[C@H](OC[C@H]2O[C@@H](O[C@@H]3CC[C@]4(C)[C@H](CC[C@@H]5[C@@H]4CC[C@@]4(C)[C@@H](C6=CC(=O)OC6)CC[C@]54O)C3)[C@@H](O)[C@@H](O)[C@H]2O)O[C@@H](C)[C@@H]1O` [Decoy926], the Type result is listed as “Inactive (Decoy)”.

`COc1cc(-c2nnc(SCC(=O)N/N=C/c3cc(OC)c(OC(C)=O)c(OC)c3)n2-c2ccccc2)cc(OC)c1OC` [Decoy928]: the Type result is listed as “Inactive (Decoy)”.

In the case of `C=CCO[C@@H]1[C@H]2OC(C)(C)O[C@H]2O[C@@H]1[C@H](O)Cn1c(=O)n(C[C@@H](O)[C@H]2O[C@@H]3OC(C)(C)O[C@@H]3[C@H]2OCC=C)c2cc(C)ccc21` [Decoy929], the Type entry is listed as “Inactive (Decoy)”.

On to `CC1(C)CC[C@]2(C(=O)O[C@@H]3O[C@H](CO)[C@@H](O)[C@H](O)[C@H]3O)CC[C@]3(C)C(=CC[C@H]4[C@@]5(C)CC[C@H](O[C@H]6OC[C@@H](O)[C@@H](O)[C@@H]6O)[C@@](C)(CO)[C@H]5CC[C@]43C)[C@@H]2C1` [Decoy930], for which the Type result was “Inactive (Decoy)”.

With `CC(=O)N[C@H]1[C@@H](OC(=O)CCn2c(=O)oc3ccccc32)O[C@@H](COC(C)=O)[C@@H](OC(C)=O)[C@H]1OC(C)=O` [Decoy931], the Type entry is “Inactive (Decoy)”.

As for `Cc1cc(C)cc(NC(=O)COc2ccc(S(=O)(=O)Nc3ccc(C(=O)O)cc3)cc2[N+](=O)[O-])c1` [Decoy932], the Type entry is “Inactive (Decoy)”.

For the compound `CCOc1ccc(NC(=O)CSC2=C(C#N)[C@@H](c3ccco3)C(C(=O)Nc3cc(OC)ccc3OC)=C(C)N2)cc1` [Decoy933], the Type entry is “Inactive (Decoy)”.

On to `CCOC(=O)c1c(NC(=O)CCSc2nnc(COC)n2N)sc2c1CCCC2` [Decoy934], for which the Type result is on record as “Inactive (Decoy)”.

Take `C/C=C(/C[C@H](O)N(C=O)Cc1cnc(C)nc1N)SS/C(=C/C)C[C@@H](O)N(C=O)Cc1cnc(C)nc1N` [Decoy935]: the Type result is “Inactive (Decoy)”.

Turning to `COc1ccccc1OCCNC[C@@H](O)Cn1c2ccccc2c2c(OC[C@@H](O)CNCCOc3ccccc3OC)cccc21` [Decoy936], the Type entry is listed as “Inactive (Decoy)”.

Regarding `CCN(CC)c1ccc(/C=N/Nc2nc(SCC(=O)n3nc(C)cc3C)n[nH]2)c(O)c1` [Decoy937], the Type result was “Inactive (Decoy)”.

Turning to `CCOC(=O)CCCCC(=O)c1[nH]c(=O)[nH]c1CSc1nnc2c3ccccc3n(CCc3ccccc3)c2n1` [Decoy938], the Type entry is “Inactive (Decoy)”.

For the compound `Cc1ccc(S(=O)(=O)NCCc2nnc(NC(=O)CSCc3ccc([N+](=O)[O-])cc3)s2)cc1` [Decoy939], the Type result is listed as “Inactive (Decoy)”.

As for `COc1cc(Cc2cc(OC)c(OC)cc2NS(=O)(=O)c2ccc3c(c2)NC(=O)CO3)c(NS(=O)(=O)c2ccc3c(c2)NC(=O)CO3)cc1OC` [Decoy940], the Type entry was “Inactive (Decoy)”.

`COc1c(O)ccc(/C=N/NC(=O)/C(=C\c2ccc(N(C)C)cc2)NC(=O)c2ccccc2)c1[N+](=O)[O-]` [Decoy941]: the Type result is “Inactive (Decoy)”.

Regarding `CCC/C=C/[C@@H](C(=O)NCS(=O)(=O)c1ccc(C)cc1)N(Cc1ccco1)C(=O)c1c(O)cccc1O` [Decoy942], the Type entry is “Inactive (Decoy)”.

Take `CO[C@H]1C[C@H](O[C@H]2CC[C@]3(C=O)[C@H]4CC[C@]5(C)[C@@H](C6=CC(=O)OC6)CC[C@]5(O)[C@@H]4CC[C@]3(O)C2)O[C@H](C)[C@H]1O[C@H]1O[C@H](CO)[C@@H](O)[C@H](O)[C@H]1O` [Decoy943]: the Type result is on record as “Inactive (Decoy)”.

Turning to `COc1ccc2[nH]cc(CCN/C(=N/C(=O)/C=C/c3cc(OC)c(OC)c(OC)c3)Nc3nc(C)cc(C)n3)c2c1` [Decoy944], the Type result is “Inactive (Decoy)”.

As for `C[C@@H](NC(=O)[C@@H](N)Cc1ccc(O)cc1)C(=O)NCC(=O)N[C@@H](Cc1ccccc1)C(=O)NNC(=O)[C@H](Cc1ccccc1)NC(=O)CNC(=O)[C@@H](C)NC(=O)[C@@H](N)Cc1ccc(O)cc1` [Decoy945], the Type result is listed as “Inactive (Decoy)”.

Turning to `Nc1ncnc2c1ncn2[C@@H]1O[C@H](CO[P@](=O)(O[C@H](CO)[C@@H](O)[C@H](O)[C@@H](O)C=O)OP(=O)(O)O)[C@@H](O)[C@H]1O` [Decoy946], the Type result was “Inactive (Decoy)”.

Turning to `CCCOc1cccc(C(=O)NC(=S)Nc2ccc(S(=O)(=O)Nc3cc(OC)ncn3)cc2)c1` [Decoy947], the Type entry is recorded as “Inactive (Decoy)”.

Take `Cc1ccc(C)c(NC(=O)CCC(=O)N/N=C(/S)NC(=O)c2ccccc2[N+](=O)[O-])c1` [Decoy948]: the Type result is listed as “Inactive (Decoy)”.

For `OC[C@@H]1O[C@H](O[C@H]2O[C@H](CO)[C@H](O)[C@H](OCc3ccccc3)[C@@H]2OCc2ccccc2)[C@H](OCc2ccccc2)[C@H](OCc2ccccc2)[C@@H]1O` [Decoy949], the Type entry is given as “Inactive (Decoy)”.

Turning to `CCCCN(CC)S(=O)(=O)c1cc([N+](=O)[O-])ccc1NN/C=C1/C(=O)N=C(O)NC1=O` [Decoy950], the Type entry is reported as “Inactive (Decoy)”.

On to `CCOC(=O)C1=C(C)N(CCOC)C(=O)/C1=C\c1ccc(CNC(=O)C(=O)Nc2ccc(C(=O)OCC)cc2)o1` [Decoy951], for which the Type result is “Inactive (Decoy)”.

`CCN(CC)Cc1nnn(-c2nonc2N)c1C(=O)N/N=C(\C)c1ccc(OCc2ccc(Cl)cc2Cl)cc1` [Decoy952]: the Type result is listed as “Inactive (Decoy)”.

As for `CCCn1c(N)c(N(CCOC)C(=O)Cc2coc3cc(C)c(C(C)C)cc23)c(=O)[nH]c1=O` [Decoy953], the Type entry is recorded as “Inactive (Decoy)”.

Consider `Cc1c(C#N)c(NC(=O)CSc2nnc(COc3ccccc3F)n2N)n(C[C@@H]2CCCO2)c1C` [Decoy954], for which the Type entry was “Inactive (Decoy)”.

On to `CC(=O)N[C@@H]1[C@@H](OC(C)=O)[C@H](OC(C)=O)[C@@H](COC(C)=O)O[C@H]1Sc1nnc(-c2ccccc2)n1C(C)C` [Decoy955], for which the Type entry is “Inactive (Decoy)”.

Turning to `CCCCCCCCO[C@@H]1[C@@H](O)[C@@H](O)O[C@H](Cn2c(=O)n(C[C@H]3O[C@H](O)[C@H](O)[C@@H](OCCCCCCCC)[C@@H]3O)c3cc(Cl)ccc32)[C@H]1O` [Decoy956], the Type entry is given as “Inactive (Decoy)”.

In the case of `CCCCCCCCO[C@@H]1[C@@H](O)[C@H](O)O[C@H](Cn2c(=O)n(C[C@H]3O[C@@H](O)[C@H](O)[C@@H](OCCCCCCCC)[C@@H]3O)c3cc(Cl)ccc32)[C@H]1O` [Decoy957], the Type entry is recorded as “Inactive (Decoy)”.

Consider `CC(=O)Nc1ccc(S(=O)(=O)Nc2nnc(CCNS(=O)(=O)c3ccc(C)cc3)s2)cc1` [Decoy958], for which the Type result was “Inactive (Decoy)”.

Take `COC(=O)[C@@H]1O[C@@H](O[C@@H]2CC[C@@]3(C)[C@@H](CC[C@H]4[C@H]3C(=O)C[C@@]3(C)[C@@H]4CC[C@]3(O)/C(COC(C)=O)=N/NC(N)=O)C2)[C@H](OC(C)=O)[C@@H](OC(C)=O)[C@@H]1OC(C)=O` [Decoy959]: the Type entry is “Inactive (Decoy)”.

With VAITVLVK [Decoy793], the Type entry is reported as “Inactive (Decoy)”.

For the compound WAGGDASGE [Decoy910], the Type entry was “Inactive (Decoy)”.
